Assay results published in patent publication US20090233960A1, “Kinase Inhibitors” (Devgen NV, priority 2005, published 2009).
“Also recorded” adds a separate entry of the source.

These compounds were tested on spontaneous hypertensive rats (SHRs) (assay: Activity on hypertension in spontaneous hypertensive rats (SAP and heart rate)). Details: SHR, 10 mg/kg, single oral dose.
Type: in vivo, rat
Experimental: The efficiency of compounds of the invention to reduce and/or treat hypertension in an acute model was evaluated using spontaneous hypertensive rats (SHRs).
Compounds were administered as one single dose to SHR. Systolic arterial pressure (SAP) and heart rate were recorded before (−1 hr) and 1, 3, 5, 7, and 24 hours after oral administration of vehicle or test compound.
A reduction in SAP by 10 percent or more (>10%), or a decrease in heart rate by 20 percent or more (>20%), relative to baseline was considered significant.
For `C[C@@H](N)[C@H]1CC[C@H](C(=O)Nc2ccncc2)CC1` [Compound Y-27632], the “hypotensive response (systolic arterial pressure)” value was “not significant; also recorded: completely inactive”.

The compounds below were run against T1, human ROCKI/ROCKII mix (Homo sapiens, UniProt O75116) (assay: ROCK inhibition, fluorescence polarization (FP) IMAP assay). Details: 10 μM ATP.
T1 construct: purchased Upstate Biotechnology 14451
T1 sequence (O75116 11-552 limits assumed): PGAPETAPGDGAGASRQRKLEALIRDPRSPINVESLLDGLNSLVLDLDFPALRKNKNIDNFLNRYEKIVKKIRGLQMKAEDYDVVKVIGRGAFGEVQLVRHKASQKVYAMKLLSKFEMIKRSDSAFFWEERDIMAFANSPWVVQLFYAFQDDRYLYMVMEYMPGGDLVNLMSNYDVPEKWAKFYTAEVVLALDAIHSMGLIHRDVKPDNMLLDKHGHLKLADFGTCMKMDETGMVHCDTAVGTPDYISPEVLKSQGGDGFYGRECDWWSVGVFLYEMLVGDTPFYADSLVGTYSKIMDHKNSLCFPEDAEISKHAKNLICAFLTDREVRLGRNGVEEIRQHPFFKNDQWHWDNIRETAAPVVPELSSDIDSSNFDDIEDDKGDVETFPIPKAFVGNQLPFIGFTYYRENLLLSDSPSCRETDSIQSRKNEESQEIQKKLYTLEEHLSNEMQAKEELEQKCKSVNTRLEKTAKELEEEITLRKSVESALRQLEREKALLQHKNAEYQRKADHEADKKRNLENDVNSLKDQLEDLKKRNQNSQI
Type: biochemical
Experimental: The compounds of the invention were tested for inhibition of human ROCKI/ROCKII mix.
The inhibition assays were performed with a fluorescence polarization (FP) assay using the commercially available ROCK IMAP Kit from Molecular Devices (Product ID. No. R8093) essentially in accordance with the protocol supplied by the manufacturer. The S6 ribosomal protein-derived substrate used was (Fl)-[…], also obtained from Molecular Devices (Product ID No. R7184). The enzyme mix ROCKI/ROCKII was obtained from Upstate Biotechnology (Product ID No 14451).
In summary, all compounds were screened in the wells of a 384 well plate for enzymatic inhibition with concentrations varying from 100 μM to 0.3 nM using a stepwise three (or two)-fold dilution.
To perform the assay, 1 μl of a solution of the compound to be tested in DMSO (at each concentration) was added to 2 μl of a solution of the enzyme in 10 mM Tris-HCl, 10 mM MgCl2, 0.1% BSA, 0.05% NaN3, pH 7,2. The final concentration of the enzyme was 2.6 nM.
After incubating for 30 minutes at room temperature, 2 μl of a mixture of ATP and the protein substrate in 10 mM Tris-HCl, 10 mM MgCl2, 0.1% BSA, 0.05% NaN3, pH 7.2 was added. The final concentration of the ATP was 10 μM and final concentration of protein substrate was 0.2 μM.
After incubating for 60 minutes at room temperature, 12 μl of the IMAP Binding Solution (mix of the IMAP Binding Buffer A (1×) and the IMAP Binding Reagent (from the ROCK IMAP kit)) was added.
The mixture thus obtained (total volume: 17 μl) was incubated for 60 minutes at room temperature, upon which the fluorescence polarization was measured using an automated plate reader (Perkin Elmer, Model Envision 2100-0010 HTS) with FP filters: excitation filter FITC FP 480 and emission filters FITC FP P-pol 535 and FITC FP S-pol 535 (Perkin-Elmer). The results were fitted to a curve using the XL-Fit algorithm and IC50 values were calculated for each fitted curve, again using the XL-Fit algorithm.
`CC(N)c1ccc(C(=O)Nc2ccncc2)cc1N` (stereo not drawn) [Compound 3, 3-amino-4-(1-amino-ethyl)-N-pyridin-4-yl-benzamide] was tested, and the IC50 was 500 to 5000 nM.
For `CC(N)c1ccc(C(=O)Nc2ccncc2)cc1NC(=O)c1cccc(Cl)c1` (stereo not drawn) [Compound 20], the IC50 was 50 to 500 nM.
Work on `CC(N)c1ccc(C(=O)Nc2ccncc2)cc1OCc1ccccc1` (stereo not drawn) [Compound 12, 4-(1-amino-ethyl)-3-benzyloxy-N-pyridin-4-yl-benzamide] yielded an IC50 of 50 to 500 nM.
In the case of `CC(N)c1ccc(C(=O)Nc2ccncc2)cc1-c1cccc(Cl)c1` (stereo not drawn) [Compound 24, 6-(1-aminoethyl)-3′-chloro-N-pyridin-4-ylbiphenyl-3-carboxamide], the IC50 is reported as under 50 nM.
In the case of `CC(N)c1ccc(C(=O)Nc2ccncc2)cc1O` (stereo not drawn) [Compound 1, 4-(1-amino-ethyl)-3-hydroxy-N-pyridin-4-yl-benzamide], the IC50 is reported as 500 to 5000 nM.
`COc1ccc(-c2cc(C(=O)Nc3ccncc3)ccc2C(C)N)cc1` (stereo not drawn) [Compound 6, 6-(1-amino-ethyl)-4′-methoxy-biphenyl-3-carboxylic acid pyridin-4-ylamide] showed an IC50 of 50 to 500 nM.
`CC(N)c1ccc(C(=O)Nc2ccncc2)cc1-c1ccoc1` (stereo not drawn) [Compound 7, 4-(1-amino-ethyl)-3-furan-3-yl-N-pyridin-4-yl-benzamide] was tested, and the IC50 was 50 to 500 nM.
`CC(N)c1ccc(C(=O)Nc2ccncc2)cc1-c1ccc(Cl)cc1` (stereo not drawn) [Compound 4, 6-(1-amino-ethyl)-4′-chloro-biphenyl-3-carboxylic acid pyridin-4-ylamide] was tested, and the IC50 was under 50 nM.
`C[C@@H](N)c1ccc(C(=O)Nc2ccncc2)cc1-c1cccs1` [Compound 103, 4-((R)-1-Amino-ethyl)-N-pyridin-4-yl-3-thiophen-2-yl-benzamide] showed an IC50 of under 50 nM.
`CC(N)c1ccc(C(=O)Nc2ccncc2)cc1OCCO` (stereo not drawn) [Compound 8, 4-(1-amino-ethyl)-3-(2-hydroxy-ethoxy)-N-pyridin-4-yl-benzamide] was tested, and the IC50 was 500 to 5000 nM.
`CC(N)c1ccc(C(=O)Nc2ccncc2)cc1-c1ccc2ccccc2c1` (stereo not drawn) [Compound 32, 4-(1-aminoethyl)-3-(2-naphthyl)-N-pyridin-4-ylbenzamide] showed an IC50 of under 50 nM.
`CC(N)c1ccc(C(=O)Nc2ccncc2)cc1NC(=O)Nc1ccccc1` (stereo not drawn) [Compound 14, 4-(1-amino-ethyl)-3-(3-phenyl-ureido)-N-pyridin-4-yl-benzamide] was tested, and the IC50 was 50 to 500 nM.
With `CC(N)c1ccc(C(=O)Nc2ccncc2)cc1OCCN` (stereo not drawn) [Compound 10, 3-(2-amino-ethoxy)-4-(1-amino-ethyl)-N-pyridin-4-yl-benzamide] the IC50 was 500 to 5000 nM.
Compound `COc1ccc(C(=O)Nc2cc(C(=O)Nc3ccncc3)ccc2C(C)N)cc1` (stereo not drawn) [Compound 21, 4-(1-Amino-ethyl)-3-(4-methoxy-benzoylamino)-N-pyridin-4-yl-benzamide] has an IC50 of under 50 nM.
`CC(N)c1ccc(C(=O)Nc2ccncc2)cc1[N+](=O)[O-]` (stereo not drawn) [Compound 2, 4-(1-amino-ethyl)-3-nitro-N-pyridin-4-yl-benzamide] showed an IC50 of 50 to 500 nM.
For `CC(N)c1ccc(C(=O)Nc2ccncc2)cc1NCc1ccco1` (stereo not drawn) [Compound 16, 4-(1-amino-ethyl)-3-[(furan-2-ylmethyl)-amino]-N-pyridin-4-yl-benzamide], the IC50 was 50 to 500 nM.
`CC(N)c1ccc(C(=O)Nc2ccncc2)cc1OCCCN` (stereo not drawn) [Compound 11, 4-(1-amino-ethyl)-3-(3-amino-propoxy)-N-pyridin-4-yl-benzamide] was tested, and the IC50 was 500 to 5000 nM.
`CC(N)c1ccc(C(=O)Nc2ccncc2)cc1NC(=O)c1ccccc1` (stereo not drawn) [Compound 17, 4-(1-amino-ethyl)-3-benzoylamino-N-pyridin-4-yl-benzamide] showed an IC50 of 50 to 500 nM.
In the case of `CC(N)c1ccc(C(=O)Nc2ccncc2)cc1OCCCO` (stereo not drawn) [Compound 9, 4-(1-amino-ethyl)-3-(3-hydroxy-propoxy)-N-pyridin-4-yl-benzamide], the IC50 is reported as 500 to 5000 nM.
`CC(N)c1ccc(C(=O)Nc2ccncc2)cc1NC(=O)c1ccco1` (stereo not drawn) [Compound 18, furan-2-carboxylic acid [2-(1-amino-ethyl)-5-(pyridin-4-ylcarbamoyl)-phenyl]-amide] was tested, and the IC50 was 50 to 500 nM.
With `CC(N)c1ccc(C(=O)Nc2ccncc2)cc1-c1cccs1` (stereo not drawn) [Compound 5, 4-(1-amino-ethyl)-N-pyridin-4-yl-3-thiophen-2-yl-benzamide] the IC50 was under 50 nM.
`CC(N)c1ccc(C(=O)Nc2ccncc2)cc1NC(=O)c1ccc(Cl)cc1` (stereo not drawn) [Compound 22, 4-(1-Amino-ethyl)-3-(4-chloro-benzoylamino)-N-pyridin-4-yl-benzamide] showed an IC50 of 50 to 500 nM.
With `C[C@H](N)c1ccc(C(=O)Nc2ccncc2)cc1-c1cccs1` [Compound 104, 4-((S)-1-Amino-ethyl)-N-pyridin-4-yl-3-thiophen-2-yl-benzamide] the IC50 was 50 to 500 nM.
In the case of `CC(N)c1ccc(C(=O)Nc2ccncc2)cc1NC(=S)Nc1ccccc1` (stereo not drawn) [Compound 13, 4-(1-amino-ethyl)-3-(3-phenyl-thioureido)-N-pyridin-4-yl-benzamide], the IC50 is reported as 50 to 500 nM.
`COc1cccc(C(=O)Nc2cc(C(=O)Nc3ccncc3)ccc2C(C)N)c1` (stereo not drawn) [Compound 19, 4-(1-amino-ethyl)-3-(3-methoxy-benzoylamino)-N-pyridin-4-yl-benzamide] gave an IC50 of under 50 nM.
`CC(N)c1ccc(C(=O)Nc2ccncc2)cc1-c1ccc(F)cc1` (stereo not drawn) [Compound 26, 6-(1-aminoethyl)-4′-fluoro-N-pyridin-4-ylbiphenyl-3-carboxamide] was tested, and the IC50 was under 50 nM.
